# Test results published in patent US20210277020A1, “HETEROCYCLIC COMPOUNDS AS MONOACYLGLYCEROL LIPASE INHIBITORS” (Hoffmann-La Roche Inc., priority 2018, published 2021).
# Molecular target: T1, MAGL (Homo sapiens, UniProt Q99685)
# T1 sequence (Q99685 1-303): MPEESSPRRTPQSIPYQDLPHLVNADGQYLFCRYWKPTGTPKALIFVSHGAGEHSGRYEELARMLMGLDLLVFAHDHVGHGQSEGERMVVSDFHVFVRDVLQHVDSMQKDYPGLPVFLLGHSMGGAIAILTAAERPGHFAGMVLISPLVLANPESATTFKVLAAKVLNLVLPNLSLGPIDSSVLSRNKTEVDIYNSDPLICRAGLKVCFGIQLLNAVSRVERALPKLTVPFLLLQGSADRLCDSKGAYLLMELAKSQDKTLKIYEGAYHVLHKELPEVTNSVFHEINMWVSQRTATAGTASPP
# Experiment: 2-AG assay: MAGL inhibition followed by hydrolysis of 2-arachidonoylglycerol to arachidonic acid, mass spectrometry
# Type: biochemical
# Settings: measured in 2-AG assay (footnote [a]); substrate 2-arachidonoylglycerol 8 μM, 30 min at RT
# Excerpt: Alternatively, compounds were profiled for MAGL inhibitory activity by determining the enzymatic activity by following the hydrolysis of the natural substrate, 2-arachidonoylglycerol, resulting in arachidonic acid, which can be followed by mass spectrometry. This assay is hereinafter abbreviated “2-AG assay”.
# Detection by mass spectrometry in the present 2-AG assay has the advantage over known optical assays that the natural enzyme substrate, 2-arachidonoylglycerol, can be used instead of structurally unrelated compounds needed for optical readouts (such as 4-NPA). It thereby delivers more relevant data for activity determination, reduces false positives and generally adds to data quality. In addition, this assay reduces the analysis time from about 10 minutes per sample with standard methods to under 10 seconds per sample. This allows for using the present 2-AG assay in a method for high throughput screening of compounds for their MAGL inhibitory activity.
# The 2-AG assay was carried out in 384 well assay plates (PP, Greiner Cat #784201) in a total volume of 20 μL. Compound dilutions were made in 100% DMSO (VWR Chemicals 23500.297) in a polypropylene plate in 3-fold dilution steps to give a final concentration range in the assay from 12.5 μM to […]. 0.25 μL compound dilutions (100% DMSO) were added to 9 μL MAGL in assay buffer (50 mM TRIS (GIBCO, 15567-027), 1 mM EDTA (Fluka, 03690-100 mL), 0.01% (v/v) Tween. After shaking, the plate was incubated for 15 min at RT. To start the reaction, 10 μL 2-arachidonoylglycerol in assay buffer was added. The final concentrations in the assay was […] and 8 μM 2-arachidonoylglyerol. After shaking and 30 min incubation at RT, the reaction was quenched by the addition of 40 μL of acetonitrile containing 4 μM of d8-arachidonic acid. The amount of arachidonic acid was traced by an online SPE system (Agilent Rapidfire) coupled to a triple quadrupole mass spectrometer (Agilent 6460). A C18 SPE cartridge (G9205A) was used in an acetonitrile/water liquid setup. The mass spectrometer was operated in negative electrospray mode following the mass transitions 303.1→259.1 for arachidonic acid and 311.1→267.0 for d8-arachidonic acid. The activity of the compounds was calculated based on the ratio of intensities [arachidonic acid/d8-arachidonic acid].
# In a preferred embodiment, the method for determining the MAGL inhibitory activity of a test compound according to the invention, comprises: • (i) providing a solution of a test compound; • (ii) adding the solution of step (i) to a solution of MAGL; • (iii) shaking the mixture obtained from step (ii); • (iv) incubating the mixture obtained from step (iii); • (v) adding a solution of 2-arachidonoylglycerol; • (vi) incubating the mixture obtained from step (v); • (vii) adding a solution of d8-arachidonic acid; and • (viii) determining the ratio of intensities arachidonic acid/d8-arachidonic acid using a mass spectrometer.
row,IC50 [nM],SMILES
1,9,"O=C1CO[C@H]2CCN(C(=O)N3CC(C#Cc4ccc(OC(F)(F)F)cc4)C3)C[C@H]2N1 [Example 166, (4aR,8aS)-6-[3-[2-[4-(Trifluoromethoxy)phenyl]ethynyl]azetidine-1-carbonyl]-4,4a,5,7,8,8a-hexahydropyrido[4,3-b][1,4]oxazin-3-one]"
2,10,"O=C1CO[C@H]2CCN(C(=O)N3CC(C#Cc4ccc(C(F)(F)F)cc4)C3)C[C@H]2N1 [Example 167, (4aR,8aS)-6-[3-[2-[4-(Trifluoromethyl)phenyl]ethynyl]azetidine-1-carbonyl]-4,4a,5,7,8,8a-hexahydropyrido[4,3-b][1,4]oxazin-3-one]"
3,6,"Cc1c(F)cccc1C#CC1CN(C(=O)N2CC[C@@H]3OCC(=O)N[C@@H]3C2)C1 [Example 168, (4aR,8aS)-6-[3-[2-(3-Fluoro-2-methylphenyl)ethynyl]azetidine-1-carbonyl]-4,4a,5,7,8,8a-hexahydropyrido[4,3-b][1,4]oxazin-3-one]"
4,4,"Cc1cccc(C)c1C#CC1CN(C(=O)N2CC[C@@H]3OCC(=O)N[C@@H]3C2)C1 [Example 169, (4aR,8aS)-6-[3-[2-(2,6-Dimethylphenyl)ethynyl]azetidine-1-carbonyl]-4,4a,5,7,8,8a-hexahydropyrido[4,3-b][1,4]oxazin-3-one]"
5,4,"O=C1CO[C@H]2CCN(C(=O)N3CC(C#Cc4ccccc4OC(F)(F)F)C3)C[C@H]2N1 [Example 170, (4aR,8aS)-6-[3-[2-[2-(Trifluoromethoxy)phenyl]ethynyl]azetidine-1-carbonyl]-4,4a,5,7,8,8a-hexahydropyrido[4,3-b][1,4]oxazin-3-one]"
6,7,"O=C1CO[C@H]2CCN(C(=O)N3CC(C#Cc4ccccc4Br)C3)C[C@H]2N1 [Example 171, (4aR,8aS)-6-[3-[2-(2-Bromophenyl)ethynyl]azetidine-1-carbonyl]-4,4a,5,7,8,8a-hexahydropyrido[4,3-b][1,4]oxazin-3-one]"
7,16,"O=C1CO[C@H]2CCN(C(=O)N3CC(C#Cc4cccc(F)c4Cl)C3)C[C@H]2N1 [Example 172, (4aR,8aS)-6-(3-((2-Chloro-3fluorophenyl)ethynyl)azetidine-1-carbonyl)hexahydro-2H-pyrido[4,3-b][1,4]oxazin-3(4H)-one]"
8,10,"Cc1ccccc1C#CC1CN(C(=O)N2CC[C@@H]3OCC(=O)N[C@@H]3C2)C1 [Example 173, (4aR,8aS)-6-(3-(o-Tolylethynyl)azetidine-1-carbonyl)hexahydro-2H-pyrido[4,3-b][1,4]oxazin-3(4H)-one]"
9,12,"O=C1CO[C@H]2CCN(C(=O)N3CC(C#Cc4ccc(Cl)cc4F)C3)C[C@H]2N1 [Example 174, (4aR,8aS)-6-[3-[2-(4-Chloro-2-fluorophenyl)ethynyl]azetidine-1-carbonyl]-4,4a,5,7,8,8a-hexahydropyrido[4,3-b][1,4]oxazin-3-one]"
10,33,"O=C1CO[C@H]2CCN(C(=O)N3CC(C#Cc4ccccc4OC(F)F)C3)C[C@H]2N1 [Example 175, (4aR,8aS)-6-[3-[2-[2-(Difluoromethoxy)phenyl]ethynyl]azetidine-1-carbonyl]-4,4a,5,7,8,8a-hexahydropyrido[4,3-b][1,4]oxazin-3-one]"
11,50,"N#Cc1cccc(Cl)c1C#CC1CN(C(=O)N2CC[C@@H]3OCC(=O)N[C@@H]3C2)C1 [Example 176, 2-[2-[1-[(4aR,8aS)-3-oxo-4,4a,5,7,8,8a-Hexahydropyrido[4,3-b][1,4]oxazine-6-carbonyl]azetidin-3-yl]ethynyl]-3-chlorobenzonitrile]"
12,22,"O=C1CO[C@H]2CCN(C(=O)N3CC(C#Cc4ccc(OC(F)F)cc4)C3)C[C@H]2N1 [Example 177, (4aR,8aS)-6-[3-[2-[4-(Difluoromethoxy)phenyl]ethynyl]azetidine-1-carbonyl]-4,4a,5,7,8,8a-hexahydropyrido[4,3-b][1,4]oxazin-3-one]"
13,56,"N#CC1(c2ccc(C#CC3CN(C(=O)N4CC[C@@H]5OCC(=O)N[C@@H]5C4)C3)cc2)CC1 [Example 178, 1-[4-[2-[1-[(4aR,8aS)-3-Oxo-4,4a,5,7,8,8a-hexahydropyrido[4,3-b][1,4]oxazine-6-carbonyl]azetidin-3-yl]ethynyl]phenyl]cyclopropane-1-carbonitrile]"
14,6,"O=C1CO[C@H]2CCN(C(=O)N3CC(C#Cc4ccc(C5CC5)cc4)C3)C[C@H]2N1 [Example 179, (4aR,8aS)-6-[3-[2-(4-Cyclopropylphenyl)ethynyl]azetidine-1-carbonyl]-4,4a,5,7,8,8a-hexahydropyrido[4,3-b][1,4]oxazin-3-one]"
15,38,"O=C1CO[C@H]2CCN(C(=O)N3CC(C#Cc4ccc(C5(O)CC5)cc4)C3)C[C@H]2N1 [Example 180, (4aR,8aS)-6-[3-[2-[4-(1-Hydroxycyclopropyl)phenyl]ethynyl]azetidine-1-carbonyl]-4,4a,5,7,8,8a-hexahydropyrido[4,3-b][1,4]oxazin-3-one]"
16,13,"COc1cccc(C#CC2CN(C(=O)N3CC[C@@H]4OCC(=O)N[C@@H]4C3)C2)c1 [Example 181, (4aR,8aS)-6-[3-[2-(3-Methoxyphenyl)ethynyl]azetidine-1-carbonyl]-4,4a,5,7,8,8a-hexahydropyrido[4,3-b][1,4]oxazin-3-one]"
17,14,"O=C1CO[C@H]2CCN(C(=O)N3CC(C#Cc4ccccc4C(F)F)C3)C[C@H]2N1 [Example 182, (4aR,8aS)-6-[3-[2-[2-(Difluoromethyl)phenyl]ethynyl]azetidine-1-carbonyl]-4,4a,5,7,8,8a-hexahydropyrido[4,3-b][1,4]oxazin-3-one]"
18,11,"COc1cccc(C#CC2CN(C(=O)N3CC[C@@H]4OCC(=O)N[C@@H]4C3)C2)c1C [Example 183, (4aR,8aS)-6-[3-[2-(3-Methoxy-2-methylphenyl)ethynyl]azetidine-1-carbonyl]-4,4a,5,7,8,8a-hexahydropyrido[4,3-b][1,4]oxazin-3-one]"
19,6,"Cc1cccc(Cl)c1C#CC1CN(C(=O)N2CC[C@@H]3OCC(=O)N[C@@H]3C2)C1 [Example 184, (4aR,8aS)-6-[3-[2-(2-Chloro-6-methylphenyl)ethynyl]azetidine-1-carbonyl]-4,4a,5,7,8,8a-hexahydropyrido[4,3-b][1,4]oxazin-3-one]"
20,36,"O=C1CO[C@H]2CCN(C(=O)N3CC(C#Cc4cc(F)ccc4Cl)C3)C[C@H]2N1 [Example 185, (4aR,8aS)-6-[3-[2-(2-Chloro-5-fluorophenyl)ethynyl]azetidine-1-carbonyl]-4,4a,5,7,8,8a-hexahydropyrido[4,3-b][1,4]oxazin-3-one]"
21,753,"CS(=O)(=O)c1ccc(C#CC2CN(C(=O)N3CC[C@@H]4OCC(=O)N[C@@H]4C3)C2)cc1 [Example 186, (4aR,8aS)-6-[3-[2-(4-Methylsulfonylphenyl)ethynyl]azetidine-1-carbonyl]-4,4a,5,7,8,8a-hexahydropyrido[4,3-b][1,4]oxazin-3-one]"
22,18,"O=C1CO[C@H]2CCN(C(=O)N3CC(C#Cc4ccc(Cl)s4)C3)C[C@H]2N1 [Example 187, (4aR,8aS)-6-[3-[2-(5-Chlorothiophen-2-yl)ethynyl]azetidine-1-carbonyl]-4,4a,5,7,8,8a-hexahydropyrido[4,3-b][1,4]oxazin-3-one]"
23,13,"O=C1CO[C@H]2CCN(C(=O)N3CC(C#Cc4csc(Cl)c4)C3)C[C@H]2N1 [Example 188, (4aR,8aS)-6-[3-[2-(5-Chlorothiophen-3-yl)ethynyl]azetidine-1-carbonyl]-4,4a,5,7,8,8a-hexahydropyrido[4,3-b][1,4]oxazin-3-one]"
